Values quoted from earlier work in patent US8425924B2, “Propylene compositions containing a pyrethroid and products made therefrom” (ExxonMobil Chemical Patents Inc., priority 2009, dated 2013).

Settings: thermal stability of the pyrethroid

In the case of `CC1(C)[C@H](C(=O)O[C@H](C#N)c2cccc(Oc3ccccc3)c2)[C@@H]1C=C(Br)Br` [deltamethrin], the “stable up to a temperature” value is given as “up to 320 °C”.

In the case of `C=CCC1=C(C)C(OC(=O)[C@@H]2[C@@H](C=C(C)C)C2(C)C)CC1=O` (some centres unmarked) [allethrin I], the “stable up to a temperature” value is listed as “more than 400 °C”.
